The subject of data set [1] is A549. Briefly: Cell cycle effects and total cell number (DAPI imaging). It is filed as cell-based, human. To be noted: for Cell cycle effects: A549; for IC50: Homo sapiens. The protocol:
Compound 7e was analyzed for effects on various aspects of cell cycle progression in human cancer cells. These studies were carried out using cells derived from lung adenocarcinoma (A549). This follow-up assessment of activity tested compounds used immunofluorescent imaging of phosphorylated Rb protein and the total DNA content of each cell to determine the cell cycle phase. The ability of the test compounds to affect the cell cycle and Rb phosphorylation was tested over a range of concentrations from less than 100 nM to 50 μM.
Fig 5 Dose-dependent changes in cell cycle. Distribution of cells within the cell cycle as well as total cell numbers were quantitated by fluorescent staining of nuclear DNA with DAPI. Phosphorylated Rb protein was detected by indirect immunofluorescence followed by automated image acquisition and analysis. […] All IC50 values are given under one unlabelled substance, with the y-axis title of each plot written in front as the measure.
A549 cells were harvested from a 90% confluent 10 cm dish and diluted in growth medium. An appropriate concentration of cells were prepared to add 5,000 cells in a volume of 100 µL per well in tissue culture treated PerkinElmer optical bottom ViewPlate microplates, then incubated overnight at 37°C. The following day, compound 7e and the positive control, sunitinib, were diluted in DMSO to concentrations 1000-fold above the maximum tested concentration.
Concentrated dosing solutions of twice the final concentration were prepared by dilution of the DMSO stocks 1:500 in growth media. Three-fold dilutions of each dosing medium were then prepared in medium containing 0.2% DMSO to maintain a constant concentration of vehicle throughout the concentration range of each compound. Each of these was added in equal volume (100 µL) to each well on the assay plate, along with the vehicle control. One plate of cells was incubated with the compounds for a further 24 h, and a separate plate was incubated with the compounds for 48 h.
DAPI (1 µg/mL) fluorescent dye was incubated with fixed cells to quantitate double stranded DNA within each cell nucleus to determine cell cycle distribution. DNA content in each cell was determined by total DAPI fluorescent intensity by high throughput image acquisition and analysis. Fluorescent intensities were plotted on histograms with threshold intensity values assigned to each cell cycle classification using the MetaXpress cell cycle analysis program. Results from each treatment were reported as average cell number in each of nine fields, as well as the percentage of cells within each phase of the cell cycle. Each of these parameters was analyzed using GraphPad Prism, and, where appropriate, IC50 values have been reported.

Data set [2] in a line: In vitro 7e release (vial method, phosphate buffer pH 7.4). It is filed as physicochemical. As to conditions: after 5 days, pH 7.4, 37°C. As to the method: In vitro7e-release: Studies on the in vitro release of 7e from microspheres were carried out using the vial method as reported by Dubey et al.. Compound 7e-PLGA-microspheres containing 5 mg equivalent of compound 7e were suspended in a vial containing phosphate buffer (10 mL, pH 7.4) with 0.3% Tween 80 to improve the solubility of 7e. The vial was incubated in a water bath at 37 ± 0.5°C and vibrated horizontally at speed of 100 rpm. In vitro 7e release was assessed by intermittently sampling the vial (2 mL) at predetermined time intervals (1, 2, 3, 4, 5, 6, 10, 12, 15, 18, 20 and 21 days), then replacing the volume with 2 mL of fresh phosphate buffer.
In vitro 7e release was assessed in phosphate buffer (pH 7.4) containing a surfactant to simulate the physiological milieu and maintain sink conditions. Samples were incubated at 37°C, and the amount of 7e was determined using a UV spectrophotometer. […] On the other hand, the release of compound 7e from the raw powder was faster than its release from the microspheres, as 65% of 7e was released after 5 days. This uncontrolled burst release of compound 7e from raw powder could result in too high local concentration which could lead to severe local tissue injure and hamper appropriate delivery to the target.

In data set [3] the test system is A549. The data set can be described thus: Cell viability assay of free 7e and 7e-loaded microspheres. It is filed as cell-based, human. As to the method:
Cell viability assay: The cell viability assay was performed as described in the section of anti-proliferative activity in the supplementary materials.
The human lung cancer A549 cell line was incubated with various concentrations (0.8, 1.6, 3.13, 6.25, 12.5, 25 and 50 μM) of both free 7e and 7e-loaded microspheres to evaluate the anti-proliferative activity by assessing their effect on cell viability.
A549, HT-29, ZR-75 were obtained from the American Type Culture Collection (ATCC). Cells were harvested from 90-95% confluent 10 cm dishes, and diluted in growth media (RPMI-1640 supplemented with 5% fetal bovine serum). An appropriate concentration of cells were prepared to add 1,250 cells in a volume of 25 µL per well in tissue culture treated Griener 384-well microplates, then incubated overnight at 37°C. Compound 7e was diluted to a concentration of 30 µM in DMSO. Concentrated dosing solutions of twice the final concentration were prepared by dilution of the DMSO stocks 1:500 in growth media. Two-fold serial dilutions were then prepared in medium containing 0.2% DMSO to maintain a constant concentration of vehicle throughout the concentration range of the compound. Each of these was added in an equal volume (25 µL) to four wells on each cell assay plate, along with the vehicle control. The highest concentration for serial dilutions of the positive control (sunitinib) was prepared exactly as the experimental compound 7e. […]
At the end of the treatment period, assay plates were allowed to cool to RT for 10 min prior to the addition of 25 µL per well Promega CellTiterGlo reagent, followed by additional 10 min incubation at RT. The resulting luminescence was quantitated using a Molecular Devices Spectramax Paradigm.

Where [4] appears, read: A549, 24 h, read-out: IC50 for reductions in the total cell number.
Setting [5] is: A549, 48 h, read-out: IC50 for reductions in the total cell number.

Entries after “also recorded” stand apart in the source; their conditions may differ.

By IC50 is commonly meant the concentration that inhibits the measured activity by half. What is called melting point is the temperature, or range, at which the solid turns liquid.

`CCN(CC)CCNC(=O)c1c(C)[nH]c(/C=C2\C(=O)Nc3ccc(F)cc32)c1C` [Sunitinib, sunitinib, reference compound]: the Cell cycle effects result in the data set on A549 [1] was “G1 decreased and G2/M-phases increased”. Further, the IC50 with A549 [1] (setting [4]) is 12.5 µM; in the data set on A549 [1] (setting [5]), 3.48 µM.

The compound `O=C1Nc2ccc(Br)cc2C1=NN=C1C(=O)N(Cc2ccccc2)c2ccccc21` [Compound 7e, 1-Benzyl-3-((5-bromo-2-oxoindolin-3-ylidene)hydrazono)indolin-2-one] came in with a melting point of 265 to 267 °C. In addition, in data set [2], the “Cumulative in vitro release of 7e” value came out at 65%. Moreover, in the data set on A549 [3] (A549, 0.8 μM, 24 h), the “Reduction in cell viability” value is “no cytotoxicity”. The “Reduction in cell viability” value in the data set on A549 [3] (A549, 1.6 μM, 24 h) is reported as “no cytotoxicity”. Further, the “Reduction in cell viability” value in the data set with A549 [3] (A549, 1.6 μM, 72 h) was 30%. For the same compound, the “Reduction in cell viability” value in the data set with A549 [3] (A549, 3.1 μM, 72 h) was found to be 70%. Moreover, the “Reduction in cell viability” value with A549 [3] (A549, 3.1 μM, 120 h) is recorded as “almost total inhibition”. Besides, the “Reduction in cell viability” value in the data set with A549 [3] (A549, 3.13 μM, 24 h) was determined as 20%. Further, the “Reduction in cell viability” value with A549 [3] (A549, 6.25 μM, 24 h) is reported as “remarkable reduction”. Besides, the half-maximal inhibitory concentration (IC50) in the data set with A549 [3] (Homo sapiens, A549, 24 h of incubation, read-out: IC50 toward A549 cells) was 6.51 µM. The Cell cycle effects result with A549 [1] is “decreased the percentage of cells in the G1 phase of the cell cycle with a corresponding increase in the S-phase; also recorded: decrease in the percentage of cells in the G1 phase of the cell cycle with a corresponding increase in the S-phase; also recorded: G1 decreased, S-phase increased”. The IC50 in the data set on A549 [1] (A549, 24 h, read-out: IC50, % G1-Phase cells) amounted to 6.26 µM. Besides, the 50% inhibitory concentration (IC50) with A549 [1] (setting [4]) is 2.67 µM. For the same compound, in the data set on A549 [1] (A549, 48 h, read-out: IC50, % G1-Phase cells), the half-maximal inhibitory concentration (IC50) was determined as 5.16 µM. The IC50 with A549 [1] (setting [5]) turned out to be 2.36 µM.
